In patent publication US20240408008A1, “AN IN-SITU GELLING ENEMA OF RIFAMYCIN FOR TREATING POUCHITIS AND DISTAL ULCERATIVE COLITIS” (COSMO TECHNOLOGIES LTD., priority 2021, published 2024):
Values after ≈ are worked out from the molar mass of the structure shown.

Tests used:
Klebsiella oxytoca = test: MIC, broth dilution; assay type: cell-based; settings: aerobic
DSS induced colitis = test: Acute colitis induced by Dextran Sulfate Sodium (DSS); assay type: in vivo; settings: mice, DSS 2%, enema 67 mg/kg
Experimental: In situ gel enema formulation batch 7663 (same formulation as batch 7639) in vivo efficacy was tested in a murine model of acute colitis induced by Dextran Sulfate Sodium (DSS). This animal model is perhaps the most widely used mouse model of colitis and employs DSS, a chemical colitogen with anticoagulant properties, to induce disease which closely resembles human UC. DSS induced intestinal inflammation results in damage to the epithelial monolayer lining the large intestine allowing the dissemination of proinflammatory intestinal contents (e.g. bacteria and their products) into underlying tissue.
For this study, a group of mice was treated by enema with Batch 7663 (indicated as CB0125 in the figures) (dose 45 mg/kg), one group was treated by enema with Placebo Batch 7679 as a comparator for 7663; a group was treated by enema with Rifamycin powder dissolved in water (67 mg/kg). One group of mice was treated orally PO with 5-ASA at the dose of 100 mg/Kg; this group was introduced as positive control. 5-ASA is the golden standard therapy for inflammatory bowel diseases, including UC, distal UC and proctitis. One group was treated by enema with the vehicle (H2O) only, as negative control.
Briefly DSS (2%) was dissolved in water (w/v) and given to mice in place of normal drinking water. DSS water was provided ad libitum for 5 days and was changed daily. This period was followed by a washout period of 5 days with water only. Mice were weighed daily and monitored for clinical status including hunching, mobility, soft stool and/or diarrhoea. At end of the study mice were sacrificed by CO2 inhalation. Immediately after euthanasia, the animals were laparatomyzed and intestine was exteriorized. The entire colon was isolated from the caecum to the anus, placed unstretched on a ruler and then measured and weighed after rinsing the lumen with saline. The weight was normalized to the colon length by calculating the ratio.
For histological analysis of colon samples, about 2 cm of the middle portion of isolated colon was fixed in a 10% formalin. Each fixed fragment was embedded in paraffin. The slides were stained with haematoxylin and eosin and assessed according to the histological score.

Ruminococcus gnavus = test: MIC, broth dilution; assay type: cell-based; settings: Mediterraneibacter gnavus, DSM108212; Ruminococcus gnavus (DSM 108212); anaerobic
Bifidobacterium breve = test: MIC, broth dilution; assay type: cell-based; settings: DSM20091; Bifidobacterium breve (DSM 20091); anaerobic
[1] = test system: selected bacteria involved in pouchitis pathogenesis; test: MIC, broth dilution, whole panel; assay type: cell-based; settings: Gram-positive and Gram-negative, aerobic and anaerobic bacteria of Table 3
From the text: (§1) The Minimum Inhibitory Concentration (MIC) is defined as the lowest concentration expressed in mg/L (equivalent to μg/mL) of an antimicrobial ingredient or agent that is bacteriostatic (prevents the visible growth of bacteria). MICs are used to evaluate the antimicrobial efficacy of various compounds by measuring the effect of decreasing concentrations of antibiotic over a defined period in terms of inhibition of microbial population growth. MIC is generally regarded as the most basic laboratory measurement of the activity of an antimicrobial agent against an organism.
(§2) Antimicrobial characteristics of Rifamycin sodium salt was assessed on a panel of selected bacteria involved in pouchitis pathogenesis and a standard broth dilution method was used to determine the MIC of Rifamycin. Briefly, two-fold dilutions of the tested compounds were dispensed in 96 round bottom well plates, each dilution was processed in the liquid culture medium suitable for the tested bacterial species. Bacteria inocula were prepared by a suspension of the microbial strain in sterile water saline and adjusted to a concentration of 0.5McFarland standard corresponding to 1.5×10^8 CFU/ml. A final bacterial concentration of 0.5-1×10^5 CFU/ml was distributed in each well. […] MIC was recorded when there was visible growth in the positive growth control column (bacterial inoculum without test substance). […]

Clostridium difficile = test: MIC, broth dilution; assay type: cell-based; settings: Clostridioides difficile, anaerobic
From the text: as §1, §2

B. longum = test: MIC, broth dilution; assay type: cell-based; settings: Bifidobacterium longum, anaerobic
B. bifidum = test: MIC, broth dilution; assay type: cell-based; settings: Bifidobacterium bifidum, DSM20082; B. bifidum (DSM 20082); anaerobic
F. nucleatum = test: MIC, broth dilution; assay type: cell-based; settings: Fusobacterium nucleatum, anaerobic
Eikenella corrodens = test: MIC, broth dilution; assay type: cell-based; settings: DSM8340; Eikenella corrodens (DSM 8340); anaerobic
Parvimonas micra = test: MIC, broth dilution; assay type: cell-based; settings: DSM20468; Parvimonas micra (DSM 20468); anaerobic
[2] = Rifamycin concentration in colon homogenates and plasma, HPLC/MS-MS; assay type: in vivo; settings: rats, single enema of formulation 7639
Experimental: Briefly, rats were anesthetized and treated by enema with formulation 7639 (2 mL/rat) into the rectum by using a catheter. All rats were sacrificed by CO2 inhalation at the predetermined time points. After a single enema administration of 7639 formulation, the concentration of Rifamycin in colon homogenates and plasma was determined by HPLC/MS-MS in samples collected at various time points.

Streptococcus pyogenes = test: MIC, broth dilution; assay type: cell-based; settings: ATCC700460; Streptococcus pyogenes (ATCC 700460); aerobic

CO[C@H]1/C=C/O[C@@]2(C)Oc3c(C)c(O)c4c(O)c(cc(O)c4c3C2=O)NC(=O)/C(C)=C\C=C\[C@H](C)[C@H](O)[C@@H](C)[C@@H](O)[C@@H](C)[C@H](OC(C)=O)[C@@H]1C [Rifamycin SV]
MIC (Klebsiella oxytoca; DSM6673, Klebsiella oxytoca (DSM 6673)): 128 µg/mL (≈ 183 µM)
MIC (Klebsiella oxytoca; Klebsiella oxytoca, ATCC700324, K. oxytoca (ATCC 700324)): 200 µg/mL (≈ 287 µM)
MIC (Klebsiella oxytoca; Klebsiella oxytoca, DSM4798, K. oxytoca (DSM 4798)): 256 µg/mL (≈ 367 µM)
MIC (Klebsiella oxytoca; Klebsiella oxytoca, DSM5175, K. oxytoca (DSM 5175)): 128 µg/mL (≈ 183 µM)
histological score (DSS induced colitis; compared to 7663): lower improvement
clinical score AUC (DSS induced colitis; compared to batch 7663): lower efficacy
cumulative stool score (DSS induced colitis; vs vehicle): significant improvement
MIC (Ruminococcus gnavus): < 0.03 µg/mL
MIC (Bifidobacterium breve): 0.5 µg/mL (≈ 0.717 µM)
antimicrobial activity in vitro [1]: powerful antimicrobial activity
MIC (Clostridium difficile; ATCC17857, C. difficile (ATCC 17857)): 0.00011 µg/mL (≈ 0.000158 µM)
MIC (Clostridium difficile; ATCC43953, Clostridium difficile (ATCC 43953)): 0.007 µg/mL (≈ 0.01 µM)
MIC (B. longum; DSM20088, B. longum (DSM 20088)): 0.5 µg/mL (≈ 0.717 µM)
MIC (B. longum; DSM20090, B. longum (DSM 20090)): 0.25 µg/mL (≈ 0.358 µM)
MIC (B. bifidum): 1 µg/mL (≈ 1.43 µM)
MIC (F. nucleatum; DSM15643, F. nucleatum (DSM 15643)): < 0.03 µg/mL
MIC (F. nucleatum; DSM19507, F. nucleatum (DSM 19507)): 8 µg/mL (≈ 11.5 µM)
MIC (Eikenella corrodens): < 0.3 µg/mL
MIC (Parvimonas micra): < 0.3 µg/mL
concentration at 6 h ([2]; rat, colon homogenate, other: enema into the rectum, 2 mL/rat, 6 hrs after administration): 123 ng/g
concentration in blood samples (LLOQ of the method) ([2]; 30 min., 1 h, 2 h, 4 h and 6 h): < 1 ng/mL
MIC (Streptococcus pyogenes): 0.5 µg/mL (≈ 0.717 µM)
